Data as given in patent publication US20100172854A1, “ANTIBACTERIAL FORMULATIONS” (priority 2007, published 2010).
≈ marks a conversion by molar mass, not a printed value.

How the values were obtained:
[1] = tested on: acyl-CoA: cholesterol acyltransferase (ACAT); conditions: compound isolated from Aspergillus fumigatus, believed to be Antioxidant 2246; cited from earlier work
tumour = conditions: compound isolated from Aspergillus fumigatus, believed to be Antioxidant 2246; cited from earlier work
[2] = tested on: Prevotella nigrescens ATCC 33563; test: MBC assay; format: cell-based
Description: (§1) This assay, normally carried out after an MIC assay, determines the minimum concentration of a compound that is lethal to the micro-organism being tested.
(§2) These samples were then individually sub-cultured on antibiotic-free agar medium, under the incubation conditions described above. Following incubation they were examined visually for microbial growth.

[3] = tested on: Enterococcus faecalis ATCC 29212; test: MBC assay; format: cell-based; conditions: ATCC29212
Description: as §1, §2

[4] = tested on: Bacillus cereus ATCC 11778; test: MBC assay; format: cell-based
Description: as §1, §2

[5] = tested on: Listeria monocytogenes ATCC 15313; test: MBC assay; format: cell-based
Description: as §1, §2

[6] = tested on: Corynebacterium mucifaciens ATCC 700355; test: MBC assay; format: cell-based; conditions: ATCC700355
Description: as §1, §2

[7] = tested on: Clostridium sporogenes ATCC 3584; test: MBC assay; format: cell-based
Description: as §1, §2

[8] = tested on: Actinomyces naeslundii ATCC 12104; test: MBC assay; format: cell-based
Description: as §1, §2

[9] = tested on: Streptococcus sobrinus ATCC 33478; test: MBC assay; format: cell-based
Description: as §1, §2

[10] = tested on: Gardnerella vaginalis ATCC 14018; test: MBC assay; format: cell-based
Description: as §1, §2

P. acnes PRP-023 = test: Agar dilution MIC assay; format: cell-based, Propionibacterium acnes; conditions: Cutibacterium acnes, PRP023, resistance phenotype MLSK
Description: (§3) The propionibacteria were cultured and maintained on Wilkins-Chalgren Anaerobe Medium (agar and broth) at pH 6.0; all cultures were incubated anaerobically at 37° C. for 72 hours.
(§4) This is a standard international method for quantitatively assessing the antimicrobial activity of a compound in a solid medium. The test compound was prepared to 40× the highest concentration required (e.g. 10 mg/ml for a final concentration of 250 μg/ml) and a series of doubling dilutions were performed in a suitable solvent. A set amount of these antimicrobial stock solutions was then added to molten agar medium (ca. 55° C.), mixed thoroughly, poured into sterile Petri dishes and allowed to cool/set. The culture medium was as described above.
(§5) A Multipoint™ Inoculator (AQS Manufacturing Ltd, UK) was used to inoculate the plates by spotting the inocula onto the surface of the agar, delivering approximately 1 to 2 μl per spot (yielding 10^5 CFU (colony forming units) per spot).
(§6) The plate(s) were then incubated under the conditions described above, following which they were examined visually for signs of bacterial growth. The MIC value was ascertained when there was a marked reduction in, or total loss of, growth on the test plate at the lowest concentration as compared to that of the growth on the control plate.
(§7) The assays were conducted in triplicate and included a positive control (culture medium, diluting solvent and inoculum).

P. acnes PRP-026 = test: Agar dilution MIC assay; format: cell-based, Propionibacterium acnes; conditions: Cutibacterium acnes, PRP026, resistance phenotype MLS
Description: as §3, §4, §5, §6, §7

P. acnes PPR-007 = test: Agar dilution MIC assay; format: cell-based, Propionibacterium acnes; conditions: Cutibacterium acnes, PPR007
Description: as §3, §4, §5, §6, §7

P. acnes PRP-059 = test: Agar dilution MIC assay; format: cell-based, Propionibacterium acnes; conditions: Cutibacterium acnes, PRP059, resistance phenotype MLS
Description: as §3, §4, §5, §6, §7

[11] = tested on: Staphylococcus auricularis ATCC 33753; test: MBC assay; format: cell-based
Description: (§8) The staphylococci were cultured and maintained on Mueller-Hinton Medium (agar and broth) at pH 7.2; cultures were incubated aerobically at 37° C. for 19-20 hours.
as §1, §2

[12] = tested on: Staphylococcus aureus ATCC 12600; test: MBC assay; format: cell-based
Description: as §8, §1, §2

[13] = tested on: S. saprophyticus NCTC 7292; test: MBC assay; format: cell-based
Description: as §8, §1, §2

[14] = tested on: Staphylococcus cohnii ATCC 29974; test: MBC assay; format: cell-based
Description: as §8, §1, §2

[15] = tested on: Staphylococcus aureus ATCC 29213; test: MBC assay; format: cell-based; conditions: S. aureus ATCC 29213
Description: as §8, §1, §2

[16] = tested on: Staphylococcus warneri ATCC 27836; test: MBC assay; format: cell-based
Description: as §8, §1, §2

[17] = tested on: Staphylococcus xylosus ATCC 29971; test: MBC assay; format: cell-based
Description: as §8, §1, §2

[18] = tested on: Staphylococcus haemolyticus ATCC 29970; test: MBC assay; format: cell-based
Description: as §8, §1, §2

[19] = tested on: Staphylococcus hominis ATCC 27844; test: MBC assay; format: cell-based
Description: as §8, §1, §2

[20] = tested on: Staphylococcus capitis ATCC 27840; test: MBC assay; format: cell-based
Description: as §8, §1, §2

[21] = tested on: Staphylococcus simulans ATCC 27848; test: MBC assay; format: cell-based
Description: as §8, §1, §2

[22] = tested on: S. epidermidis NCTC 11047; test: MBC assay; format: cell-based
Description: as §8, §1, §2

[23] = tested on: Propionibacterium acnes NCTC 737; test: MBC assay; format: cell-based; conditions: P. acnes NCTC 737
Description: as §3, §1, §2

Cc1cc(Cc2cc(C)cc(C(C)(C)C)c2O)c(O)c(C(C)(C)C)c1 [AO 2246, 2,2′-methylene-bis(4-methyl-6-tert-butylphenol)]
inhibitor of the enzyme ACAT [1]: inhibitor | anti-tumour activity (tumour): anti-tumour activity | MIC/MBC Ratio [2]: <0.5 | MBC ([2]; ATCC33563): > 15.6 µg/mL | MBC ([3]; Enterococcus faecalis ATCC 29212): 7.8 µg/mL (≈ 22.9 µM) | MIC/MBC Ratio ([3]; Enterococcus faecalis): 0.25 | MIC/MBC Ratio [4]: 0.5 | MBC ([4]; ATCC11778): 3.9 µg/mL (≈ 11.5 µM) | MIC/MBC Ratio [5]: 0.25 | MBC ([5]; ATCC15313): 7.8 µg/mL (≈ 22.9 µM) | MBC ([6]; Corynebacterium mucifaciens ATCC 700355): 3.9 µg/mL (≈ 11.5 µM) | MIC/MBC Ratio ([6]; Corynebacterium mucifaciens): 0.5 | MIC/MBC Ratio [7]: 0.125 | MBC ([7]; ATCC3584): 31.2 µg/mL (≈ 91.8 µM) | MIC/MBC Ratio [8]: 0.5 | MBC ([8]; ATCC12104): 3.9 µg/mL (≈ 11.5 µM) | MIC/MBC Ratio [9]: 0.5 | MBC ([9]; ATCC33478): 31.2 µg/mL (≈ 91.8 µM) | MIC/MBC Ratio [10]: 1 | MBC ([10]; ATCC14018): 15.6 µg/mL (≈ 45.8 µM) | MIC (P. acnes PRP-023): 3.9 µg/mL (≈ 11.5 µM) | MIC (P. acnes PRP-026): 3.9 µg/mL (≈ 11.5 µM) | MIC (P. acnes PPR-007): 1.95 µg/mL (≈ 5.73 µM) | MIC (P. acnes PRP-059): 3.9 µg/mL (≈ 11.5 µM) | MIC/MBC Ratio [11]: 0.5 | MBC ([11]; ATCC33753): 3.9 µg/mL (≈ 11.5 µM) | MIC/MBC Ratio [12]: 0.06 | MBC ([12]; ATCC12600): 15.6 µg/mL (≈ 45.8 µM) | MIC/MBC Ratio [13]: 1 | MBC ([13]; Staphylococcus saprophyticus, NCTC7292): 3.9 µg/mL (≈ 11.5 µM) | MIC/MBC Ratio [14]: 1 | MBC ([14]; ATCC29974): 3.9 µg/mL (≈ 11.5 µM) | MIC/MBC Ratio [15]: 0.5 | MBC ([15]; Staphylococcus aureus, ATCC29213): 7.8 µg/mL (≈ 22.9 µM) | MIC/MBC Ratio [16]: <0.5 | MBC ([16]; ATCC27836): > 31.2 µg/mL | MIC/MBC Ratio [17]: 1 | MBC ([17]; ATCC29971): 3.9 µg/mL (≈ 11.5 µM) | MIC/MBC Ratio [18]: 1 | MBC ([18]; ATCC29970): 3.9 µg/mL (≈ 11.5 µM) | MIC/MBC Ratio [19]: 0.25 | MBC ([19]; ATCC27844): 31.2 µg/mL (≈ 91.8 µM) | MIC/MBC Ratio [20]: 0.25 | MBC ([20]; ATCC27840): 15.6 µg/mL (≈ 45.8 µM) | MIC/MBC Ratio [21]: 0.5 | MBC ([21]; ATCC27848): 31.2 µg/mL (≈ 91.8 µM) | MIC/MBC Ratio [22]: 0.5 | MBC ([22]; Staphylococcus epidermidis, NCTC11047): 7.8 µg/mL (≈ 22.9 µM) | MBC ([23]; Cutibacterium acnes, NCTC737): 15.6 µg/mL (≈ 45.8 µM) | MIC/MBC Ratio [23]: 0.25
